Results: article PMC5036131, “Fragment-based discovery of a new family of non-peptidic small-molecule cyclophilin inhibitors with potent antiviral activities” (Nature Communications, 2016)

How the values were obtained:
Format in all cases: in vitro ADME
CYP2D6 = CYP2D6 (Homo sapiens, UniProt P10635); assay: Metabolism by recombinant human cytochrome P450, CYP2D6; conditions: recombinant enzyme
Method: […] of compound was incubated with individual bacterially expressed recombinant human cytochromes P450 co-expressed with human NADPH cytochrome P450 reductase. […] Enzyme-selective positive control substrates were tested in parallel.

CYP2C8 = target: T1, CYP2C8 (Homo sapiens, UniProt P10632); assay: Cytochrome P450 enzyme inhibition assay, CYP2C8; parameters: incubated with human hepatic microsomal fractions and NADPH; from tissue; host or cells: human hepatic microsomal fractions; conditions: human hepatic microsomal fractions, up to 25 μM
T1 sequence (P10632 1-490): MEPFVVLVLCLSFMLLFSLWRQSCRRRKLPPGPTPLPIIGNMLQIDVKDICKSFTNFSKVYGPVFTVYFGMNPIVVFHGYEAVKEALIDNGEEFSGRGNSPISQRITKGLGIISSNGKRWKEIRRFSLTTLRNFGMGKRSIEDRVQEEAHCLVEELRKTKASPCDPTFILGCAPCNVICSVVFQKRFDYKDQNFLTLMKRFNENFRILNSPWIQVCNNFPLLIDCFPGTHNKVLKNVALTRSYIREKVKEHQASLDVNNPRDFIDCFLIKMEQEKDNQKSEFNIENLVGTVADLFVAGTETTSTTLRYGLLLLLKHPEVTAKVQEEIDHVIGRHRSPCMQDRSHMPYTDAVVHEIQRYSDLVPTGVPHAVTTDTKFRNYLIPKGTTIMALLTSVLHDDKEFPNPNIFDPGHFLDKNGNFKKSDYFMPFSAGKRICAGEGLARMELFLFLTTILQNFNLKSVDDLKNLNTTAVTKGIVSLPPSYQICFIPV
Method: (§1) Up to 25 μM of compounds 29 and 30 was incubated with human hepatic microsomal fractions and NADPH in the presence of individual probe substrates. All assays were designed so that conditions were linear with respect to time and protein concentration. Substrates were present at concentrations equal to or lower than their respective Km values. Enzyme selective products were determined by fluorometry (ethoxyresorufin O-deethylase) or by specific LC-MS/MS assays. Relative enzyme activities were determined by comparison with those assayed with DMSO vehicle instead of inhibitor. IC50 values were calculated by nonlinear curve fitting using a sigmoidal model. Positive control inhibitors for each enzyme were tested in parallel.

CYP1A2 = target: T2, CYP1A2 (Homo sapiens, UniProt P05177); assay: Cytochrome P450 enzyme inhibition assay, CYP1A2; parameters: incubated with human hepatic microsomal fractions and NADPH; from tissue; host or cells: human hepatic microsomal fractions; conditions: human hepatic microsomal fractions, up to 25 μM
T2 sequence (P05177 1-516): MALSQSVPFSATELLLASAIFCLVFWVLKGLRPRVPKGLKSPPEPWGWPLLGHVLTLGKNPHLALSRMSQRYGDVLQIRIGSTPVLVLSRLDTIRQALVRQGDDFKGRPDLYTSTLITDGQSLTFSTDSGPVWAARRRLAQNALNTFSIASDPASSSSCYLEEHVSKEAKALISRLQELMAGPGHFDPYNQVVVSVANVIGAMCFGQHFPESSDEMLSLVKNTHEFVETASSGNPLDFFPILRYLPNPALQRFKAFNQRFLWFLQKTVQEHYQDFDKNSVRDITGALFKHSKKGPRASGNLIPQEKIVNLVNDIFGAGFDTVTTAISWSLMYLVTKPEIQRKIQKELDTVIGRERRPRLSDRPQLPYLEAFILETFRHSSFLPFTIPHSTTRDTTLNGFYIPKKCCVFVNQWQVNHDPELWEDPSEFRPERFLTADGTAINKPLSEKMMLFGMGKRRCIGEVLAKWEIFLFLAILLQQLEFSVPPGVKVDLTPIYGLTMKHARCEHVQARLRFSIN
Method: as §1

Sequence of CYP2D6 (P10635 whole entry): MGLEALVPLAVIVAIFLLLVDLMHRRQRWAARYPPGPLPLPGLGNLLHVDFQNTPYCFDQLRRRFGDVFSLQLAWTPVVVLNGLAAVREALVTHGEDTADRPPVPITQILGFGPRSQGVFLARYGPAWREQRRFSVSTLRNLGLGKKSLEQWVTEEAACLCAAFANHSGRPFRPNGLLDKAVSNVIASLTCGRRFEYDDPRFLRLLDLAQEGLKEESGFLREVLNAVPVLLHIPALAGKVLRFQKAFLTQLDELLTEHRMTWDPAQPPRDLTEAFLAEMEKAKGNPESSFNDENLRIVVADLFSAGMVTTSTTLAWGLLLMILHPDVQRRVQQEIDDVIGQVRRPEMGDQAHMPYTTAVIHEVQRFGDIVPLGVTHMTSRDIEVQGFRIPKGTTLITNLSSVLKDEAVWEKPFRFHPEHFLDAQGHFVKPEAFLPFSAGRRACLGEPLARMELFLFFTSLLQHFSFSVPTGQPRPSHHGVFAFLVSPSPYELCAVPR

CSCCC(NC(=O)NCc1ccc(N)cc1)C(=O)N1CCCC1c1ccccc1SC.O=C(O)C(F)(F)F (centres unmarked) [Compound 30]
Rate of metabolism by human cytochrome P450 CYD2D6 (CYP2D6): 1.24 pmol/pmol P450/min | IC50 (CYP2C8): 9.4 µM | Inhibition of cytochrome P450 activity, IC50 CYP2C8 (CYP2C8): moderate inhibitors | IC50 (CYP1A2): > 25 µM | Inhibition of cytochrome P450 activity, IC50 CYP1A2 (CYP1A2): Neither compound 29 nor compound 30 significantly inhibited
